Results: paper PMC7179274, “6′-β-Fluoro-Homoaristeromycin and 6′-Fluoro-Homoneplanocin A Are Potent Inhibitors of Chikungunya Virus Replication through Their Direct Effect on Viral Nonstructural Protein 1” (Antimicrobial Agents and Chemotherapy, 2020)
Residue numbers refer to the chain shown, from its start. “Also recorded” adds a separate entry of the source. Where two headings read alike, the source gives them in different places.

What was measured:
SFV nsP1 K231R+K300E = target: T1, SFV nsP1 K231R+K300E (Semliki forest virus, UniProt P08411, K231R/K300E); type: biochemical; details: 0 to 1 mM, 10 μM SAM, normalized to untreated control
T1 sequence (P08411 1-537 K231R/K300E): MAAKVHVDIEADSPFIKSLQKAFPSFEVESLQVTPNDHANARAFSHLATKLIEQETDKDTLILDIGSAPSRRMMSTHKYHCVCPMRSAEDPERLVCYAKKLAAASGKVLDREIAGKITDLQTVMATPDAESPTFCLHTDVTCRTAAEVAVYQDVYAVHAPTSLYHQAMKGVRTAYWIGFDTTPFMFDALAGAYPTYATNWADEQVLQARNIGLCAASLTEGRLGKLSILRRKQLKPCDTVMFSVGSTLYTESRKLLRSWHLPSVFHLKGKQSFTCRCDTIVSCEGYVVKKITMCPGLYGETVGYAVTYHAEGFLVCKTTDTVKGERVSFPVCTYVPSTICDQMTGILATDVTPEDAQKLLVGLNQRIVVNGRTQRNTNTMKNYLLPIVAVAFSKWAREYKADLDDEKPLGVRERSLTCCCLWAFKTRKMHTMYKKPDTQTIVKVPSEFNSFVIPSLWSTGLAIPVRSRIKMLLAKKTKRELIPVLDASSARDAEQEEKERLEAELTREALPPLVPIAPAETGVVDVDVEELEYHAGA

wt SFV nsP1 = target: T2, wt SFV nsP1 (Semliki forest virus, UniProt P08411); assay: nsP1 enzymatic activity assay (m7GMP-nsP1 intermediate formation), wt
T2 sequence (P08411 1-537): T1 sequence (P08411 1-537 K231R/K300E) with R231K, E300K

rCHIKV mutants = assay: microbe, parasite or virus in culture; type: cell-based, Chikungunya virus; details: for Fold resistance: EC50 mutant/EC50 wt
[1] = target: host enzyme SAH hydrolase; parameters: method as in PMID 26010585; details: in vitro; read-out: 50% inhibitory concentration, SAH hydrolase; cited from earlier work
SFV = assay: CPE reduction assay, SFV
SINV = assay: CPE reduction assay, SINV; details: VeroE6 cells, MOI 0.025
CHIKV = assay: CPE reduction assay, CHIKV
VeroE6 cells = assay: Cytotoxicity in uninfected cells (MTS/PMS) of the CPE reduction assay
[2] = Chikungunya virus, Vero C1008, read-out: Mean EC50 ± SD
[3] = Chikungunya virus, read-out: Mean EC50 ± SD
[4] = rCHIKV nsP1-G230R + nsP1-K299E + nsP3-*524R
[5] = rCHIKV nsP1-G230R + nsP1-K299E + nsP3-*524R, read-out: Mean EC50 ± SD
[6] = rCHIKV nsP1-G230R + nsP1-K299E, read-out: Mean EC50 ± SD
[7] = rCHIKV nsP1-R171Q, read-out: Mean EC50 ± SD

Compound: Nc1ncnc2c1ncn2[C@@H]1O[C@H](CSCC[C@H](N)C(=O)O)[C@@H](O)[C@H]1O [SAH, S-adenosylhomocysteine, reference compound]
- Inhibition of mutant compared to wt SFV nsP1 (SFV nsP1 K231R+K300E): inhibited by SAH to a similar extent; also recorded: inhibited by SAH to the same extent
- Inhibition of m7GMP-nsP1 formation, dose response (wt SFV nsP1; 0 to 1 mM, 10 μM SAM): inhibited in a dose-dependent manner
- Inhibition of m7GMP-nsP1 formation (wt SFV nsP1; 1 mM, 100-fold molar excess over SAM (10 μM SAM)): fully inhibited

Compound: 6′-β-fluoro-homoaristeromycin [FHA]
- Resistance of rCHIKV G230R+K299E to the compound (rCHIKV mutants; rCHIKV G230R+K299E): resistant
- IC50 [1]: 0.37 µM
- SI (SFV) (SFV; CC50/EC50): >64
- EC50 (SFV; read-out: EC50 (SFV), VeroE6 cells, MOI 0.025, MTS at 40 hpi, mean ± SD): 3.9 ± 3.5 µM
- Protection against SINV infection (SINV): did not confer protection
- SI (CHIKV) (CHIKV; CC50/EC50): >1,000
- EC50 (CHIKV; read-out: EC50 (CHIKV), VeroE6 cells, MOI 0.005, MTS at 96 hpi, mean ± SD): 0.12 ± 0.04 µM
- CC50 (VeroE6 cells; read-out: CC50 (CHIKV assay), CHIKV assay format): > 250 µM
- CC50 (VeroE6 cells; read-out: CC50 (SFV assay), SFV assay format): > 250 µM
- CC50 (VeroE6 cells; read-out: CC50 (SINV assay), SINV assay format): > 250 µM

Compound: O=c1cnn([C@@H]2O[C@H](CO)[C@@H](O)[C@H]2O)c(=O)[nH]1 [6-Azauridine, 6-azauridine, reference compound]
- EC50 (rCHIKV mutants; [2]): 0.3 ± 0.01 µM
- EC50 (rCHIKV mutants; [3]): 8.9 ± 3.4 µM
- Fold resistance (rCHIKV mutants; [4]): 4
- EC50 (rCHIKV mutants; [5]): 0.9 ± 0.1 µM
- Fold resistance (rCHIKV mutants; rCHIKV nsP1-G230R + nsP1-K299E): 4
- EC50 (rCHIKV mutants; [6]): 1.1 ± 0.1 µM
- Fold resistance (rCHIKV mutants; rCHIKV nsP1-R171Q): 3
- EC50 (rCHIKV mutants; [7]): 0.8 ± 0.1 µM

Compound: CCc1nc2c(nnn2-c2cccc(OC(C)C)c2)c(=O)[nH]1 [MADTP-372, reference compound]
- Effect on formation of m7GMP-nsP1 intermediate (control compound) (wt SFV nsP1; 50 μM, 5 or 10 μM SAM): clearly inhibited the reaction

Compound: COc1c(C)c2c(c(O)c1C/C=C(\C)CCC(=O)O)C(=O)OC2 [Mycophenolic acid, mycophenolic acid, reference compound]
- EC50 (rCHIKV mutants; [2]): 0.4 ± 0.01 µM
- EC50 (rCHIKV mutants; [3]): 6.3 ± 11.4 µM
- Fold resistance (rCHIKV mutants; [4]): 1
- EC50 (rCHIKV mutants; [5]): 0.5 ± 0.03 µM
- Fold resistance (rCHIKV mutants; rCHIKV nsP1-G230R + nsP1-K299E): 3
- EC50 (rCHIKV mutants; [6]): 1.1 ± 0.5 µM
- Fold resistance (rCHIKV mutants; rCHIKV nsP1-R171Q): 11
- EC50 (rCHIKV mutants; [7]): 4.2 ± 2.8 µM
